From patent US20080200531A1, “CDKI pathway inhibitors as inhibitors of tumor cell growth” (priority 2006, published 2008)

Key:
[1] = Range Finder Study (acute toxicity, MTD) in NCr nude mice; type: in vivo; settings: for impact on White Blood Cell count, first iteration: up to 17.6 mg/kg intravenously; for impact on White Blood Cell count, second iteration / toxicity in the Range Finder Study: up to 70.4 mg/kg intravenously
Procedure: Male NCr nude mice, aged approximately 6-8 weeks were used for the study, which was carried out as a service by Taconic Biotechnology, Rensselaer, N.Y. Animals were maintained under virus free barrier conditions with continuous health monitoring. The administration of test materials, all data collection and disposal of study animals was in compliance with all relevant Taconic Biotechnology Standard Operating Procedures as well as The Guide for the Care and Use of Laboratory Animals. Study animals were observed upon arrival and daily throughout the study for overall health, behavior and morbidity. Test animals were subject to body weight measurement to determine dosage volumes of test articles.
The initial part of this analysis was a Range Finder Study, designed to evaluate acute toxicity and to identify the maximum tolerated dose (MTD) for therapeutic study. The Range Finder Study was performed twice. For the first iteration, 30 mice were injected intravenously with SNX9 and SNX9-1 in groups of 3 with phosphate buffered saline (PBS) only, 2.2 mg/kg SNX9, 4.4 mg/kg SNX9 8.8 mg/kg SNX9, 17.6 mg/kg SNX9, 80% PBS: 20% DMSO, 2.2 mg/kg SNX9-1, 4.4 mg/kg SNX9-1 8.8 mg/kg SNX9-1, 17.6 mg/kg SNX9-1. SNX9 was dissolved in PBS and SNX9-1 was dissolved in 80% PBS:20% DMSO. The volume injected per animal was approximately 0.1 ml/injection. […] All other animals appeared healthy and thrived for the duration of the 3 day period of observation, and their general health and body weight were assessed. For all the mice, there was no significant weight change (see Table 4). At the end of the 3 day observation period all the mice were euthanized and a terminal blood sample was collected via cardiac puncture. These blood samples were analyzed for complete blood count evaluation. […] A slight elevation of Red Blood Cell count was detected in approximately half of the groups, although this elevation was less than a 7% increase above the upper reference range and was not considered significant. All other blood count categories placed within the reference range.
For the second iteration, 24 mice were injected intravenously with SNX9 and SNX9-1 in groups of 3 with PBS only, 17.6 mg/kg SNX9, 35.2 mg/kg SNX9, 70.4 mg/kg SNX9, 80% PBS:20% DMSO, […] SNX9-1, 35.2 mg/kg SNX9-1, 70.4 mg/kg SNX9-1. […] All other animals were healthy for the duration of the 3 day period during which the animals were observed and their general health and body weight were assessed. For all the mice, there was no significant weight change (see Table 4). The average beginning weight for the mice in the second iteration was 23.7 g±1.73. After the 3 day observation period all the mice were euthanized and a terminal blood sample was collected via cardiac puncture. These blood samples were analyzed for complete blood count evaluation. […] A slight elevation of Red Blood Cell count was detected in approximately 7 out of eight of the groups, although this elevation was less than a 6% increase above the upper reference range and was not considered significant. All other blood count categories placed within the reference range.

[2] = test system: cyclin/CDK complexes (CDK1, CDK2, CDK3, CDK6); experiment: Cyclin/CDK kinase assays, comparison over all complexes; type: biochemical, human
Procedure: To test the above hypothesis, we determined whether several CDKI pathway inhibitors, including two SNX9 class compounds (SNX9 and SNX9-1), two compounds of a different structural class (SNX14 and SNX2) and another unrelated inhibitor (SNX35), inhibit the kinase activity of different complexes formed in vitro by purified cyclin/CDK complexes. This analysis was carried out as a service by Upstate Biotechnology, Inc.
At the first step, all the compounds were tested at 100 μM concentration. […] For SNX14 and SNX2, the relative efficacy of inhibition was CDK1>CDK2˜CDK3>CDK6. For SNX9 and SNX9-1, the order was CDK3>CDK1>CDK2>CDK6 (FIG. 12).

[3] = test system: CDKI-responsive endogenous genes induced by p21; experiment: Q-PCR of CDKI-responsive endogenous genes, HT1080 cells with IPTG-inducible p21; type: cell-based, human; settings: 10 μM SNX9, 20 μM SNX9-1; normalized to β-actin
Procedure: For this purpose, we developed real-time RT-PCR (Q-PCR) assays for measuring RNA levels of eleven CDKI-responsive genes. This assay uses a 96-well TurboCapture RNA extraction kit (Qiagen), in which oligo(dT) is covalently bound to the surface of the wells to allow mRNA isolation from cell lysate and cDNA synthesis in the same wells. 5 units/μl of SuperScript III reverse transcriptase (Invitrogen) was added to the wells for 1 hr for cDNA synthesis at 50° C., and 2 μl of the resulting cDNA was then used for Q-PCR analysis using SYBR Green PCR Master Mix (ABI) with ABI 7900HT Q-PCR machine.
This effect argues that the molecular target of these compounds is not a specific CDKI but rather a common downstream mediator of the transcription-inducing effects of different CDKI.

[4] = test system: p21-induced CMV-GFP expression (CDKI pathway); experiment: CMV-GFP reporter assay for p21-induced transcription (HTS) in HT1080 p21-9 derived reporter cell line; type: cell-based, human; settings: for anti-CDKI pathway activity in the reporter assay (induction of CMV-GFP expression in response to p21): libraries screened at 20 μM
Source text: As described in a co-pending patent application PCT/US06/0 1046, we have developed a high-throughput screening (HTS) procedure for compounds inhibiting the CDKI pathway. This procedure utilizes a highly sensitive reporter cell line that was generated by infecting HT1080 p21-9 cells, a derivative of HT1080 fibrosarcoma cells that express p21 from a promoter induced by a physiologically neutral β-galactoside IPTG (isopropyl-β-thio-galactoside) with a lentiviral vector that expresses Green Fluorescent Protein (GFP) from the CDKI-inducible cytomegalovirus (CMV) promoter, followed by subcloning of GFP positive cells and monitoring the induction of GFP expression by IPTG. A cell line showing approximately 10-fold increase in GFP upon the addition of IPTG was used for HTS in a 96-well format.
This reporter line was used to screen two diversified small-molecule libraries developed by ChemBridge Corp., Microformat 04 and DiverSet, each comprising 50,000 compounds. These diversified libraries were rationally chosen by ChemBridge by quantifying pharmacophores in a collection of >500,000 drug-like molecules, using a version of Chem-X software to maximize the pharmacophore diversity. The Microformat 04 collection was designed to complement the chemical space covered by the older DiverSet library. ChemBridge libraries have been successfully used by numerous industrial and academic researchers, in a variety of cell-based and cell-free assays. The ChemBridge libraries were screened at 20 μM concentration, a conventional concentration for cell-based screening of these libraries. 62 of 100,000 ChemBridge compounds were identified by HTS and verified as inhibiting the induction of CMV-GFP expression in response to p21. This low hit rate (0.06%) indicates a high selectivity of our assay.
In this experiment, HT1080 p21-9 cells that express firefly luciferase from a CDKI-responsive promoter of cellular NK4 gene were cultured with IPTG for two days, which is sufficient for near-maximal induction of NK4 (Poole et al., supra).

| Compound | deaths, second iteration ([1]; 70.4 mg/kg group of 3, intravenously, shortly after dosing, likely due to shock and not compound toxicity) | impact on White Blood Cell count, first iteration [1] | impact on White Blood Cell count, second iteration [1] | toxicity in the Range Finder Study [1] | relative efficacy of inhibition (order of CDKs) [2] | induction of CDKI-responsive endogenous genes by p21 (ratio of RNA levels with and without IPTG) [3] | normalized GFP expression without p21 induction ([4]; in the absence of IPTG) | normalized GFP expression with p21 induction ([4]; in the presence of IPTG, three days of p21 induction) | anti-CDKI pathway activity in the reporter assay (induction of CMV-GFP expression in response to p21) [4] | deaths, first iteration ([1]; 2.2 mg/kg (lowest dose) group of 3, intravenously, day one, apparently due to shock) |
| --- | --- | --- | --- | --- | --- | --- | --- | --- | --- | --- |
| Cc1[nH]c2c(Cl)cccc2c1CCN [SNX9] | One animal died shortly after dosing | neither SNX9 nor SNX9-1 had a detectable impact on White Blood Cell count | neither SNX9 nor SNX9-1 had a detectable impact on White Blood Cell count | complete lack of toxicity | CDK3>CDK1>CDK2>CDK6 | partially inhibit the induction of all the tested genes | does not inhibit promoter function when p21 is not induced | pronounced inhibition of transcription by p21 | showed anti-CDKI pathway activity in the reporter assay |  |
| NCCc1c[nH]c2c(Cl)cc(Cl)cc12 [SNX9-1] |  | neither SNX9 nor SNX9-1 had a detectable impact on White Blood Cell count | neither SNX9 nor SNX9-1 had a detectable impact on White Blood Cell count | complete lack of toxicity | CDK3>CDK1>CDK2>CDK6 | partially inhibit the induction of all the tested genes |  |  | showed anti-CDKI pathway activity in the reporter assay | One animal died on day one |
